These results are taken from PubChem BioAssay AID1996.

In brackets after ≈: the same amount, converted by molar mass.

The conditions of this series: buffer; pH 7.4; 200.0 µM.
For `Cc1ccc(-c2ccnc3cc(C)nn23)cc1`, the solubility (kinetic) (commonly solubility judged after dilution from a stock solution rather than from solid) is more than 33.5 µg/mL. Turning to `COc1ccccc1C(=O)NCC(=O)Nc1ccc2c(c1)OCO2`, the solubility (kinetic) came out at 10.5 µg/mL (≈ 32 µM). Compound `CC(=O)c1cccc(Nc2cc(C)nc3ccc(C)cc23)c1.Cl` registered a solubility (kinetic) of 46.9 µg/mL. Under `CSc1ncccc1C(=O)OCc1ccc([N+](=O)[O-])cc1` stands 0.9 µg/mL (≈ 2.96 µM); under `COc1ccc(Nc2cc(Nc3ccc(OC)cc3)ncn2)cc1`, less than 0.2 µg/mL; under `Cc1cc(OC(F)F)ccc1NC(=O)Nc1ccc2c(c1)OCO2`, less than 0.4 µg/mL. Compound `COC(=O)C1CCN(c2cc(Cl)nc(N)n2)CC1` yielded a kinetic solubility of 24.5 µg/mL (≈ 90.5 µM). With `CC(C)(C)OC(=O)CN1c2cccc3cccc(c23)S1(=O)=O`, the solubility (kinetic) is 14.9 µg/mL (≈ 46.7 µM).

`COCC(=O)Nc1ccccc1-c1ccccc1` registered a solubility (kinetic) of more than 36.2 µg/mL. The figure for `CN(C)CCCNc1nc(-c2ccc(Cl)cc2)nc2ccccc12` is 41.7 µg/mL (≈ 122 µM); for `CCOc1cc(/C=N/OC(C)=O)ccc1OCc1ccccc1` it is 27.2 µg/mL (≈ 86.8 µM). Under `CCCCS(=O)(=O)N1CCCC(C(=O)Oc2ccc(Cl)cc2)C1` (stereo unspecified) stands less than 0.8 µg/mL. In turn, `Cc1ccc(N2CC(=O)Nc3c(oc4nc(-c5ccccc5)cc(C)c34)C2=O)cc1` displayed a kinetic solubility of less than 0.3 µg/mL. Under `O=C(NC(O)C(=O)c1ccc(F)cc1)c1ccc(F)cc1` (stereo unspecified) stands more than 43.7 µg/mL; under `Cc1cccc(NC(=O)Nc2ccccc2)n1`, 2.5 µg/mL (≈ 11 µM); under `CCSc1nnc(NC(=O)c2c(C)noc2C)s1`, more than 42.7 µg/mL. The compound `Cc1ccc(NC(=O)NC2CCCCCCC2)cc1C` had a kinetic solubility of less than 0.3 µg/mL. `COc1ccc(OC)c(NC(=O)c2ccc3c(c2)OCO3)c1` displayed a kinetic solubility of 4.7 µg/mL (≈ 15.6 µM). Regarding `O=C1c2cccc3cccc(c23)C(=O)N1c1ccc(O)cc1`, the solubility (kinetic) is less than 0.6 µg/mL. For the compound `CN1C(=O)C(CCC(=O)O)NC1=S` (stereo unspecified), the solubility (kinetic) is 28.2 µg/mL (≈ 139 µM). In turn, `CC(C)CN(C(=O)C1CC1)C1CCS(=O)(=O)C1` (stereo unspecified) gave a kinetic solubility of more than 38.9 µg/mL. On to `Cn1ccnc1SCC(=O)N1CCc2ccccc21`, for which the solubility (kinetic) is 38.9 µg/mL (≈ 142 µM). `O=C(CNCc1ccc(Cl)cc1)N1CCc2ccccc2C1` yielded a kinetic solubility of 36.8 µg/mL (≈ 117 µM). In the case of `Cc1ccc(NC(=O)NCC2CC2(Cl)Cl)cc1` (stereo unspecified), the solubility (kinetic) was determined as 9.1 µg/mL (≈ 33.3 µM). In turn, `CCOC(=O)c1ccc(NC(=S)N2CCCC2)cc1` showed a solubility (kinetic) of 39.6 µg/mL (≈ 142 µM). In turn, `CC1CCCC(NC(=O)Cn2cc(Br)ccc2=O)C1C` (stereo unspecified) displayed a solubility (kinetic) of more than 51.2 µg/mL. Under `CCN(CC)C(=O)Oc1ccc(Cl)c2cccnc12` stands 40.7 µg/mL (≈ 146 µM). Consider `O=C(Nc1c[nH]c(=O)[nH]c1=O)c1cccc(F)c1`, for which the kinetic solubility is 12.2 µg/mL (≈ 49 µM).

The compound `O=C(NCc1ccco1)c1ccc([N+](=O)[O-])cc1Cl` registered a solubility (kinetic) of 40 µg/mL (≈ 143 µM). The compound `O=C(NCC(=O)N1CC=C(c2ccccc2)CC1)c1ccco1` showed a kinetic solubility of more than 46.6 µg/mL.

In the case of `Cc1cccc(C(=O)Nc2ccc3c(c2)C(=O)N(CC(C)C)C3=O)c1`, the kinetic solubility is less than 0.4 µg/mL. The figure for `CCOC(=O)c1c(C)[nH]c(C(=O)COC(=O)c2cc(C)oc2C)c1C` is 3 µg/mL (≈ 8.64 µM). Under `COc1cc(CNC(=O)c2cc3ccccc3oc2=O)cc(OC)c1OC` stands 4.6 µg/mL (≈ 12.5 µM). `CSc1nc(N)nc(C2CC2)n1`: the kinetic solubility amounted to 24.4 µg/mL (≈ 134 µM). Under `CC1CCC(NC(=O)CN2C(=O)C3CC=CCC3C2=O)CC1` (stereo unspecified) stands more than 45.7 µg/mL. Under `CCN(CC)S(=O)(=O)c1cc(NS(=O)(=O)c2cccs2)ccc1C` stands more than 58.3 µg/mL. The figure for `COc1ccc(NC(=O)CN(c2ccccc2OC)S(=O)(=O)c2cccs2)cc1Cl` is 2.9 µg/mL (≈ 6.21 µM). `Cc1nc2ccc(NC(=O)c3ccc4ccccc4n3)cc2s1` displayed a solubility (kinetic) of less than 0.2 µg/mL. The figure for `CSc1ncc(C(C)=O)c(C)n1` is more than 27.3 µg/mL; for `COCCN1C(=O)NC(=O)/C(=C\c2ccc(F)cc2)C1=O` it is 33.5 µg/mL (≈ 115 µM); for `Cn1cc(-c2ccccc2C(N)=O)c(=O)c2ccccc21` it is more than 41.7 µg/mL. `CC(=O)c1ccc([N+](=O)[O-])c(CS(=O)(=O)c2ccccc2)c1` yielded a solubility (kinetic) of less than 0.7 µg/mL. The figure for `COc1ccc(OCC(=O)NCCCn2ccnc2)cc1.Cl` is more than 48.9 µg/mL; for `O=S(=O)(NCc1ccc(Cl)cc1)c1cccc2cccnc12` it is 43.2 µg/mL (≈ 130 µM).

Consider `COc1ccc(CNc2nc3ccccc3n2C)c(OC)c1`, for which the solubility (kinetic) is more than 44.6 µg/mL. `C=CCc1cccc(C=Nc2c[nH]c(=O)[nH]c2=O)c1O` yielded a kinetic solubility of 8.4 µg/mL (≈ 31 µM). Under `Cc1onc(-c2c(F)cccc2Cl)c1C(=O)N1CCCCC1` stands more than 48.4 µg/mL; under `CC1=C/C(=N\OS(=O)(=O)c2ccccc2)C(C)=CC1=O`, 6.4 µg/mL (≈ 22 µM). The figure for `CCOc1ccc(C(=O)NCCc2cnc[nH]2)cc1` is more than 38.9 µg/mL. The figure for `O=C(Cc1ccc(Cl)cc1Cl)Nc1ccncc1` is 31 µg/mL (≈ 110 µM); for `CN(C)CC/C=C1\c2ccccc2Sc2cc(F)c(Cl)cc21.Cl` it is 43 µg/mL; for `COc1ccc(C)cc1NC(=O)CN1C(=O)COc2ccc(C)cc21` it is 2.1 µg/mL (≈ 6.17 µM).

For the compound `CC(=O)Nc1ccc(Nc2nc(C)cc(C)n2)cc1`, the solubility (kinetic) is more than 38.4 µg/mL.

The compound `CCCN(C(=O)CCc1ccc(OC)cc1)c1c(N)n(Cc2ccccc2)c(=O)[nH]c1=O` had a solubility (kinetic) of 8.9 µg/mL (≈ 20.4 µM). Turning to `O=S(=O)(Nc1ccccc1N1CCOCC1)c1ccccc1C(F)(F)F`, the kinetic solubility was 7.3 µg/mL (≈ 18.9 µM). The compound `O=C(c1ccc(-c2ccc(Cl)cc2Cl)o1)N1CCOCC1` registered a kinetic solubility of 4.2 µg/mL (≈ 12.9 µM). `O=C(CCc1nc2ccccc2s1)NC1CCOC1=O` (stereo unspecified) yielded a solubility (kinetic) of more than 43.6 µg/mL. Under `CCOc1cc(C(=S)N2CCCC2)ccc1OCc1ccccc1` stands 7.6 µg/mL (≈ 22.3 µM).

On to `Cc1ccccc1N1C(=O)CC2(CCCC2)CC1=O`, for which the kinetic solubility is 37.2 µg/mL (≈ 145 µM).

The compound `CC(=O)c1ccc(S(=O)(=O)N2CCCCC2C(=O)O)cc1` (stereo unspecified) returned a solubility (kinetic) of 45.9 µg/mL (≈ 147 µM).

On to `Cc1ccc(S(=O)(=O)NCC(=O)OCC(=O)N2CC(=O)Nc3ccccc32)cc1`, for which the solubility (kinetic) is more than 62.6 µg/mL. The figure for `CCc1ccc(NC(=O)Nc2cnccn2)cc1` is 9.9 µg/mL (≈ 40.9 µM). The figure for `CC(C)(C)c1ccc(C(=O)NCCc2ccccc2)cc1` is 0.8 µg/mL (≈ 2.84 µM); for `COC(C(=O)Nc1c(F)cccc1F)c1ccccc1` (stereo unspecified) it is more than 41.6 µg/mL. For `CCCn1cnc2scc(-c3ccc(OC)cc3)c2c1=O`, the solubility (kinetic) was 13.9 µg/mL (≈ 46.3 µM). In the case of `COc1cccc(CNc2nc3ccccc3n2C(C)C)c1O`, the solubility (kinetic) came out at 2.2 µg/mL (≈ 7.07 µM).

As to `Cc1ccc2nc(-c3ccncc3)[nH]c2c1`, the solubility (kinetic) turned out to be 28.1 µg/mL (≈ 134 µM). Under `O=C(CCC(=O)c1ccc(-c2ccccc2)cc1)Nc1cccnc1` stands 0.7 µg/mL (≈ 2.12 µM); under `COc1ccc2c(CCNC(N)=S)c[nH]c2c1`, 17.7 µg/mL (≈ 71 µM); under `CCCCC(=O)Nc1cc([N+](=O)[O-])ccc1F`, 31.8 µg/mL (≈ 132 µM). Turning to `COc1ccc(C)cc1NC(=S)NC(C)c1ccc(OC)c(OC)c1` (stereo unspecified), the kinetic solubility stood at 13.3 µg/mL (≈ 36.9 µM).

Compound `COCCn1c(SCC(=O)N2CCOCC2)nnc1-c1ccco1` displayed a solubility (kinetic) of more than 52.9 µg/mL. The figure for `O=C(CSc1cccc2cccnc12)N/N=C/c1ccncc1` is more than 48.4 µg/mL; for `CCc1ccccc1NC(=O)C1CCN(C(=O)c2cccs2)CC1` it is more than 51.4 µg/mL. Under `CNS(=O)(=O)c1ccc2c3c(cccc13)C(=O)N2` stands 27.7 µg/mL (≈ 106 µM); under `O=C(Nc1ccc2c(c1)OCO2)c1noc2c1CCCC2`, 4.1 µg/mL (≈ 14.3 µM); under `COC(=O)[C@H](CC(C)C)NC(=O)Nc1ccc(S(N)(=O)=O)cc1`, more than 51.5 µg/mL. The figure for `O=c1c2ccccc2nc(-c2ccccc2Cl)n1-c1ccc(O)cc1` is more than 52.3 µg/mL; for `CSc1nc(=S)n(-c2ccc([N+](=O)[O-])cc2)c(C)c1C(C)=O` it is 48.2 µg/mL (≈ 144 µM). Compound `CCCc1ccc2oc(C(=O)N(C)Cc3cnccn3)c(C)c2c1` yielded a kinetic solubility of 26.8 µg/mL (≈ 82.9 µM). `COc1ccccc1C(=O)NC(C)c1ccc(-n2ccnc2)cc1` (stereo unspecified): the solubility (kinetic) is more than 48.2 µg/mL. The figure for `Cc1ccccc1NC(=O)CSc1nnc(-c2ccccn2)o1` is more than 49 µg/mL. The figure for `CN(C)c1ccc(C(=O)NCc2ccc3c(c2)CCO3)cc1` is 34.3 µg/mL (≈ 116 µM); for `Cc1onc(-c2ccccc2Cl)c1C(=O)OCC(=O)N1CCCCC1` it is more than 54.4 µg/mL; for `Cc1ccc2c(c1)c(-c1csc(N)n1)c(C)n2C` it is 13.4 µg/mL (≈ 52.1 µM).

Turning to `COc1ccc(NC(=O)CCCC2CCCCC2)c(OC)c1`, the kinetic solubility is less than 0.7 µg/mL. Under `COc1ccc(CN2C(=O)CSCC2=O)cc1OC` stands more than 42.2 µg/mL; under `O=C(/C=C/c1ccccc1)Nc1cccnc1`, more than 33.6 µg/mL.

In turn, `Cc1nc2ccccn2c1C(=O)CSc1ccccc1` showed a solubility (kinetic) of more than 42.4 µg/mL. As for `COc1ccccc1CNC(=O)CNC(=O)c1sc2ccccc2c1Cl`, the solubility (kinetic) was 7.6 µg/mL (≈ 19.5 µM). Under `CC(=O)NCCc1ccc(C(=O)COC(=O)c2cccn2C)cc1` stands more than 49.3 µg/mL; under `CCOC(=O)N1CCc2c(sc(NC(=O)CN(CC)CC)c2C#N)C1`, more than 54.7 µg/mL. The figure for `Cn1c(O)c(C=Nc2ccccc2)c(=O)n(C)c1=O` is 24 µg/mL (≈ 92.6 µM); for `N#C/C(=C\C=C\c1ccccc1)C(=O)NCc1cccnc1` it is 6.3 µg/mL (≈ 21.8 µM); for `CN1CCC(N(C)C(=O)Cc2ccccc2[N+](=O)[O-])CC1` it is more than 43.7 µg/mL.

Compound `Cc1ccc2nc(NCCC(=O)O)nc(-c3ccccc3)c2c1` had a kinetic solubility of more than 46.1 µg/mL. As to `Cn1c(=O)[nH]c2ncn(C)c2c1=O`, the solubility (kinetic) is more than 27 µg/mL. Under `CCNC(=O)c1ccc(CSc2nc3ccccc3s2)cc1` stands 6.7 µg/mL (≈ 20.4 µM). The figure for `CCOc1ccc(CN(C)CC(=O)NCc2ccccc2)cc1` is 34.8 µg/mL (≈ 111 µM); for `CCc1ccccc1N1CN(Cc2cccnc2)CNC1=S` it is more than 46.9 µg/mL.

The compound `CCc1ccc(NC(=O)/C(C#N)=C/c2ccncc2)cc1` returned a kinetic solubility of 8.8 µg/mL (≈ 31.7 µM). As to `Cc1ccc(NC(=O)c2ccco2)c(NC(=O)c2ccccc2)c1`, the solubility (kinetic) is 4.1 µg/mL (≈ 12.8 µM).

For `O=C(CNC(=O)c1ccc(Cl)cc1Cl)NCC1CCCO1` (stereo unspecified), the solubility (kinetic) was more than 49.7 µg/mL. The figure for `C[n+]1ccccc1/C=N/O.[I-]` is more than 39.6 µg/mL. For `O=C(O)Cn1c(=O)c2cccn2c2ccccc21`, the kinetic solubility is more than 36.3 µg/mL.

Consider `O=C(Nc1ccc(Cl)cc1)C1CCCC1`, for which the solubility (kinetic) is 15.8 µg/mL (≈ 70.6 µM).
